Results on 1 compound are retold here after patent US8609635B2, “Fused tricyclic silyl compounds and methods of use thereof for the treatment of viral diseases” (priority 2010, dated 2013).

Structures are written as SMILES.

For one data set, the system named is HCV replicon gt1b_con1. Nature of the data set: Cell-based HCV replicon assay (TaqMan), genotype 1b (Con1). The note with it: Hepatitis C virus, 72 h; replicon 1b (Con1); replicon RNA by TaqMan, day 3. The method in brief: (§1)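 Replicon cells seeded at 5000 cells/well with compound (10 serial 2-fold dilutions from 250 μM to 1 μM top dose; 0.5% DMSO, 5% FBS) and lysed on day 3. Replicon RNA quantified by multiplex TaqMan RT-PCR (NS5B amplicon, GAPDH control); ΔCT versus concentration fitted to sigmoid dose-response. Chimeras carry patient-isolate NS5A.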
On the technique in general: Replicon systems follow genome replication, usually without infectious particles.

A further data set has as its system HCV replicon gt2a_JFH. Nature of the data set: Cell-based HCV replicon assay (TaqMan), genotype 2a (JFH). The note with it: Hepatitis C virus, 72 h, replicon 2a (JFH); replicon RNA by TaqMan, day 3. A digest of the protocol: as §1
Data set [1] relates to HCV chimeric replicon with NS5A of genotype 3a (NC00982). As to the kind of experiment: Cell-based HCV replicon assay (TaqMan), chimeric replicon genotype 3a (NC00982). The note with it: Hepatitis C virus, 72 h, read-out: HCV replicon EC50 3a (NC00982), chimeric replicon 3a (NC00982); replicon RNA by TaqMan, day 3. The method in brief: as §1
The subject of data set [2] is HCV chimeric replicon with NS5A of genotype 4a (DQ41878). As to the kind of experiment: Cell-based HCV replicon assay (TaqMan), chimeric replicon genotype 4a (DQ41878). The note with it: Hepatitis C virus, 72 h, read-out: HCV replicon EC50 4a (DQ41878). A digest of the protocol:
as §1

The subject of data set [3] is HCV replicon 1a (Y93H) mutant. As to the kind of experiment: Cell-based HCV replicon assay (TaqMan), genotype 1a mutant Y93H. The note with it: Hepatitis C virus, 72 h, read-out: HCV replicon EC50 1a (Y93H). A digest of the protocol:
as §1

Data set [4] is described as follows: Pharmacokinetic analysis in dogs. The format is in vivo, male beagle dogs. The note with it: Dog, dihydrochloride salt, 2 mpk/PO, 1 mpk/IV. On the procedure:
Various pharmacokinetic parameters for compound 56 were measured in rats, dogs and monkeys as described below.
Following an overnight fast, male beagle dogs were dosed with the dihydrochloride salt of compound 56 orally at 2 mg/kg as a suspension in 0.4% hydroxylpropyl methylcellulose (HPMC) or intravenously at 1 mg/kg as a solution in 20% hydroxypropyl-β-cyclodextrin (20% HPβCD). For oral dosing, the animals were typically restrained by hand and dosed by oro-gastric intubation. Dogs were fed approximately 4 hours after dosing. Blood samples were collected from the jugular or cephalic vein at 0.25, 0.5, 1, 2, 4, 6, 8, 12, 24, 48, 72 and 96 hrs (PO) and 0.167, 0.25, 0.5, 1, 2, 4, 6, 8, 12, 24, 48, 72 and 96 hrs (IV) post-dosing and centrifuged to generate plasma. The plasma samples were stored at […] until analysis.
Collected plasma samples were analyzed for the presence of compound 56 using LC-MS/MS as described below.
The HPLC/API-MS/MS system for the example data consisted of a HPLC pumping system and a auto sampler with the sample tray refrigeration option connected directly to a triple quadrupole mass spectrometer with an API source. Typical HPLC methods for the example data was based on a fast gradient of two solvents: solvent A consisted of 0.1% formic acid in water, and solvent B consisted of 0.1% formic acid in acetonitrile. A fast linear gradient (start at 90% A for 0.2 min, ramp to 95% B from 0.2 to 0.5 min, hold at 95% B […], then ramp back to 90% A from 1.0 to 1.1 min, then hold at, […] from 1.1 to 1.2 min) was used. The flow rate for the HPLC system was set to 1 mL/min throughout the HPLC gradient; the HPLC column was a Halo C18 column (2.7 micron particle size, 50×2.1 mm). The example compounds were analyzed by positive ion atmospheric pressure chemical ionization tandem mass spectrometry (APCI-MS/MS). As a general procedure, selected reaction monitoring (SRM) methods were developed for each compound prior to analysis of the plasma samples. Normally, the individual SRM transitions were based on a fragmentation from the protonated molecule ([MH].) to a characteristic product ion.
Using the methods described above, the following pharmacokinetic parameters were calculated in rats, dogs and monkeys and the results are summarized in the table below.

A word on the EC50: it is the concentration that produces a half-maximal response. With `COC(=O)N[C@H](C(=O)N1CC(F)(F)C[C@H]1c1ncc(-c2ccc(-c3ccc4c(ccc5nc([C@@H]6C[Si](C)(C)CN6C(=O)[C@@H](NC(=O)OC)C(C)C)[nH]c54)c3)cc2)[nH]1)C(C)C` [Compound 56], the EC50 in the data set on HCV replicon gt1b_con1 is 0.003 nM; in the data set on HCV replicon gt2a_JFH it was 0.027 nM; in data set [1] it was 0.35 nM; in data set [2], 0.02 nM; in data set [3] it was 46 nM. Further, in data set [4], the “Effective Half-Life” value is 18 h. The “Volume of Distribution” value in data set [4] amounted to 1.3 L/kg. The “Oral Bioavailability” value in data set [4] (dose-normalized AUC between PO and IV) amounted to 8.7%. Moreover, in data set [4] (male, beagle, plasma, 1 mg/kg, read-out: Systemic Clearance), the clearance was 0.048 L/h/kg.
